The values below come from ChEMBL document CHEMBL5696442, “Discovery of type II inhibitors of TGFβ-activated kinase 1 (TAK1) and mitogen-activated protein kinase kinase kinase kinase 2 (MAP4K2)” (J Med Chem, 2015).

Calls of active or inactive are those of the source. The rule behind the calls is not given here.

Experiment [1] has as its target T1, Serine/threonine-protein kinase Sgk3 (Homo sapiens) (UniProt Q96BR1).
T1 sequence (whole entry): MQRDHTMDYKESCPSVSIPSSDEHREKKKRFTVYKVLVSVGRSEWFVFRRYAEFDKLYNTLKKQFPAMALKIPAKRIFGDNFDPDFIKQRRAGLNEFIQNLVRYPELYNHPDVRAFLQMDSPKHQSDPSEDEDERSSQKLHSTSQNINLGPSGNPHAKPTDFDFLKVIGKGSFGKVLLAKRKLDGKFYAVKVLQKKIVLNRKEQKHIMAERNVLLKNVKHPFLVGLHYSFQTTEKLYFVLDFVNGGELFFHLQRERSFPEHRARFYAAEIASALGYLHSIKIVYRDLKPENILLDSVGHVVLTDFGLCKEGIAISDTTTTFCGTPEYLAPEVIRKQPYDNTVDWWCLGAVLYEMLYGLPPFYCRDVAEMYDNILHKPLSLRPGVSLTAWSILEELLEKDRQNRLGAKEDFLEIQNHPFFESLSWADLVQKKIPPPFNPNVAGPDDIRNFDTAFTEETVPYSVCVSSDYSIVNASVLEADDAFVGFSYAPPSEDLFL
Briefly: Inhibition of SGK3 Lys1 labeling site in human A-375 cells at 5 uM by KiNativ Profiling analysis relative to control. It counts as cell-based.

The target of experiment [2] is Mitogen-activated protein kinase 14 (Homo sapiens, UniProt Q16539). Briefly: Inhibition of p38 alpha Lys2 labeling site in human A-375 cells at 0.5 uM by KiNativ Profiling analysis relative to control. Format: cell-based.
Mitogen-activated protein kinase 14, sequence (Q16539 whole entry): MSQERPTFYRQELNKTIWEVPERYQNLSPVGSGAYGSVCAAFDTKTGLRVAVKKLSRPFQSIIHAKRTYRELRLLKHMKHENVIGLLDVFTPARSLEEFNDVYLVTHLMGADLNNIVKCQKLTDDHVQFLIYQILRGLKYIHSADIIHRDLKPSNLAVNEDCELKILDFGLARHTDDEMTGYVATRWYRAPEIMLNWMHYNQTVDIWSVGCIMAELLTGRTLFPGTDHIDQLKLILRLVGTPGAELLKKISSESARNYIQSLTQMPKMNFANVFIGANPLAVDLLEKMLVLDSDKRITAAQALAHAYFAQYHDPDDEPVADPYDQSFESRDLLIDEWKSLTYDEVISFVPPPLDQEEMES
Experiment [3] addresses Insulin receptor (Homo sapiens) (UniProt P06213). The experiment can be described thus: Inhibition of INSR (unknown origin) at 1 uM by Ambit Kinomescan binding assay relative to control; values are per cent of control.
Experiment [4] deals with Homeodomain-interacting protein kinase 1 (Homo sapiens) (UniProt Q86Z02). Briefly: Inhibition of HIPK1 (unknown origin) at 1 uM by Ambit Kinomescan binding assay relative to control; values are per cent of control.
Homeodomain-interacting protein kinase 1 (Homo sapiens), sequence (Q86Z02 whole entry, looked up): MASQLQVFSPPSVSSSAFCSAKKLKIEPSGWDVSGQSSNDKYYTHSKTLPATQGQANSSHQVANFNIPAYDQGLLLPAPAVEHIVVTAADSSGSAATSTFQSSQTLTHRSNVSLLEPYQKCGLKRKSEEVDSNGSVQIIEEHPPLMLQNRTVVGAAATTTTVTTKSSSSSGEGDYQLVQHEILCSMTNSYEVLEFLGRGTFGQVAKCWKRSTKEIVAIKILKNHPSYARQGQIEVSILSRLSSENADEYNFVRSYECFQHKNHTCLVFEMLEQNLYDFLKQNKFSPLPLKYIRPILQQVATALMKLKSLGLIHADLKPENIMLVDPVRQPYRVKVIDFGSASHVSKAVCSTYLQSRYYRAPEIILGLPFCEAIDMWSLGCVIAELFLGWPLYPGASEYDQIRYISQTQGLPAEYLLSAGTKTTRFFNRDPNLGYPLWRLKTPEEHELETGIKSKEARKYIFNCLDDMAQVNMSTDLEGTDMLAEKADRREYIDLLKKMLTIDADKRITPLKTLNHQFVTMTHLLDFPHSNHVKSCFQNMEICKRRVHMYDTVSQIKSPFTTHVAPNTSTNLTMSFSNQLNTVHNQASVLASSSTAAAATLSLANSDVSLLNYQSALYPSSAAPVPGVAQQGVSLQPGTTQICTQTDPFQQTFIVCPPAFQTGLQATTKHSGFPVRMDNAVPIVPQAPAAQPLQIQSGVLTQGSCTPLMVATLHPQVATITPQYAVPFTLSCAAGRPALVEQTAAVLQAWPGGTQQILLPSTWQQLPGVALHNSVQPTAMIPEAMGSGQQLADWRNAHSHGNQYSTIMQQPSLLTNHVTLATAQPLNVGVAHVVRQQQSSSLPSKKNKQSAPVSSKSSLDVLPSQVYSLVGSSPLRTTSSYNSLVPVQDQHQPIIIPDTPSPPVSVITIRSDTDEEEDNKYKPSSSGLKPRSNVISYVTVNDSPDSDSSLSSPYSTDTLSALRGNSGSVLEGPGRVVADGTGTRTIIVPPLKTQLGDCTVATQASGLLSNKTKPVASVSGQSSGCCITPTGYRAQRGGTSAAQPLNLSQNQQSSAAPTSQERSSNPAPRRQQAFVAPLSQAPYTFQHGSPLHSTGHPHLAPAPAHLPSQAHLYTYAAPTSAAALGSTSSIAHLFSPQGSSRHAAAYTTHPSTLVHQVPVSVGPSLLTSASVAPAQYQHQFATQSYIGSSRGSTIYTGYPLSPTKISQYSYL
Experiment [5] concerns the target T2, Dual specificity mitogen-activated protein kinase kinase 6 (Homo sapiens) (UniProt P52564).
T2 sequence (whole entry): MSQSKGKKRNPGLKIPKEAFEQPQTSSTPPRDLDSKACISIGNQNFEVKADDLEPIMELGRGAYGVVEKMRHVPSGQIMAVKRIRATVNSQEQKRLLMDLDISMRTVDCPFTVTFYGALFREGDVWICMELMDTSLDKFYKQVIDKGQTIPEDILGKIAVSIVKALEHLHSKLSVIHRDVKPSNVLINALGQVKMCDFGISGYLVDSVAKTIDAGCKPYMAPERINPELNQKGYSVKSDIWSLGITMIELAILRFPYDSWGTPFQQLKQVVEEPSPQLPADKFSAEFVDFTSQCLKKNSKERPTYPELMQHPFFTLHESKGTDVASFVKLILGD
Briefly: Inhibition of MEK6 (unknown origin) at 10 uM by Ambit Kinomescan binding assay.

Experiment [6] concerns the target T3, Mitogen-activated protein kinase kinase kinase 2 (Homo sapiens) (UniProt Q9Y2U5).
T3 sequence (whole entry): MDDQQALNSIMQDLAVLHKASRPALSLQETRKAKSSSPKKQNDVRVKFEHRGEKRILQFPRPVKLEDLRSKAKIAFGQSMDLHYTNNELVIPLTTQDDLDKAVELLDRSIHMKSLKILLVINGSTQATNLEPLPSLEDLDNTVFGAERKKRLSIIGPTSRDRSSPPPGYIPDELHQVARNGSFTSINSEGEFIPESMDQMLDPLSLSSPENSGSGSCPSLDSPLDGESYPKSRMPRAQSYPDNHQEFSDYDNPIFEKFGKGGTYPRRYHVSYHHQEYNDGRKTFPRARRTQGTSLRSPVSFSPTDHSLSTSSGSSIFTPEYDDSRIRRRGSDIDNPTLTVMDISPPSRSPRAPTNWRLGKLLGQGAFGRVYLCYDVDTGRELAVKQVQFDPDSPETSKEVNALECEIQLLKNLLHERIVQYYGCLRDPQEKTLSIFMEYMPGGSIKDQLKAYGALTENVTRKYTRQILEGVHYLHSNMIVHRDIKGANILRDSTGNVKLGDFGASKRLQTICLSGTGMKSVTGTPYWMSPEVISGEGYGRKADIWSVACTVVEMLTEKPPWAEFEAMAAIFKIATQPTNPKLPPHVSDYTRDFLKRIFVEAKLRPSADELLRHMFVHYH
The experiment can be described thus: Inhibition of MAP3K2 Lys2 labeling site in human A-375 cells at 0.5 uM by KiNativ Profiling analysis relative to control. It counts as cell-based.

The target in experiment [7] is Tyrosine-protein kinase CSK (Homo sapiens, UniProt P41240). The experiment can be described thus: Inhibition of CSK ACT labeling site harbouring VSDFGLTKEASSTQDTGK in human Huh-7 cells at 10 uM by KiNativ Profiling analysis relative to control. Format: cell-based.
Tyrosine-protein kinase CSK, sequence (P41240 2-450 limits assumed): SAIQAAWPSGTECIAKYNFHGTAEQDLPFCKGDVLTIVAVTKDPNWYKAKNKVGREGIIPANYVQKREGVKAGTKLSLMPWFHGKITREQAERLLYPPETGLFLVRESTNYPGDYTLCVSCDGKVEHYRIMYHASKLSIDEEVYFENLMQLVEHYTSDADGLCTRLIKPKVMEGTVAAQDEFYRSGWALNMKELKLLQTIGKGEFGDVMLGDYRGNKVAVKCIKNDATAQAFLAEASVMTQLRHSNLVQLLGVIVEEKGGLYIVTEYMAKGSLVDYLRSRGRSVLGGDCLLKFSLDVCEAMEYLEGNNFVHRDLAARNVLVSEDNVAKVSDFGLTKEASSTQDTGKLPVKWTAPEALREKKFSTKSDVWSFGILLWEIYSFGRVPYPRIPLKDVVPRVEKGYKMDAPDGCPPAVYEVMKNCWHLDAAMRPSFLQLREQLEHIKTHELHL
Experiment [8] concerns the target T4, Serine/threonine-protein kinase STK11 (Homo sapiens) (UniProt Q15831).
T4 sequence (whole entry): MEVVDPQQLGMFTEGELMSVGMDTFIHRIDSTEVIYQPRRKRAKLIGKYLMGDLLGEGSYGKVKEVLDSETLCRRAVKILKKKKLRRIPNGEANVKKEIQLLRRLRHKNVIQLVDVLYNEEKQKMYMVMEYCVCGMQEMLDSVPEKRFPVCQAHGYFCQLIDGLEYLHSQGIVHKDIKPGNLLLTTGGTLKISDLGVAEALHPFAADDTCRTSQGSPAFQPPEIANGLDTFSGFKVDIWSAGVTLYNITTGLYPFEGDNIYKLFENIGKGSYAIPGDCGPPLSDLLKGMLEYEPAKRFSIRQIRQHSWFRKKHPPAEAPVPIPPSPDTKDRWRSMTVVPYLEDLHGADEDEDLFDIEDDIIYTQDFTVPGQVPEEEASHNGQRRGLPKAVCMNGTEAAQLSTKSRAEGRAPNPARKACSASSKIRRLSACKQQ
The experiment can be described thus: Inhibition of LKB1 K2 labeling site in human Huh-7 cells at 10 uM by KiNativ Profiling analysis relative to control. Format: cell-based.

Experiment [9] addresses Tyrosine-protein kinase JAK1 (Homo sapiens) (UniProt P23458). Briefly: Inhibition of JAK1 Domain 2 ACT labeling site harbouring IGDFGLTKAIETDKEYYTVK in human Huh-7 cells at 1 uM by KiNativ Profiling analysis relative to control. It counts as cell-based.

As a reminder, the inhibition is the change of the read-out against control, counted positive when it falls. A word on the residual activity: it is what remains of the control signal, in per cent.

Tyrosine-protein kinase JAK1 (Homo sapiens), sequence (P23458 whole entry, the tested form may be a part): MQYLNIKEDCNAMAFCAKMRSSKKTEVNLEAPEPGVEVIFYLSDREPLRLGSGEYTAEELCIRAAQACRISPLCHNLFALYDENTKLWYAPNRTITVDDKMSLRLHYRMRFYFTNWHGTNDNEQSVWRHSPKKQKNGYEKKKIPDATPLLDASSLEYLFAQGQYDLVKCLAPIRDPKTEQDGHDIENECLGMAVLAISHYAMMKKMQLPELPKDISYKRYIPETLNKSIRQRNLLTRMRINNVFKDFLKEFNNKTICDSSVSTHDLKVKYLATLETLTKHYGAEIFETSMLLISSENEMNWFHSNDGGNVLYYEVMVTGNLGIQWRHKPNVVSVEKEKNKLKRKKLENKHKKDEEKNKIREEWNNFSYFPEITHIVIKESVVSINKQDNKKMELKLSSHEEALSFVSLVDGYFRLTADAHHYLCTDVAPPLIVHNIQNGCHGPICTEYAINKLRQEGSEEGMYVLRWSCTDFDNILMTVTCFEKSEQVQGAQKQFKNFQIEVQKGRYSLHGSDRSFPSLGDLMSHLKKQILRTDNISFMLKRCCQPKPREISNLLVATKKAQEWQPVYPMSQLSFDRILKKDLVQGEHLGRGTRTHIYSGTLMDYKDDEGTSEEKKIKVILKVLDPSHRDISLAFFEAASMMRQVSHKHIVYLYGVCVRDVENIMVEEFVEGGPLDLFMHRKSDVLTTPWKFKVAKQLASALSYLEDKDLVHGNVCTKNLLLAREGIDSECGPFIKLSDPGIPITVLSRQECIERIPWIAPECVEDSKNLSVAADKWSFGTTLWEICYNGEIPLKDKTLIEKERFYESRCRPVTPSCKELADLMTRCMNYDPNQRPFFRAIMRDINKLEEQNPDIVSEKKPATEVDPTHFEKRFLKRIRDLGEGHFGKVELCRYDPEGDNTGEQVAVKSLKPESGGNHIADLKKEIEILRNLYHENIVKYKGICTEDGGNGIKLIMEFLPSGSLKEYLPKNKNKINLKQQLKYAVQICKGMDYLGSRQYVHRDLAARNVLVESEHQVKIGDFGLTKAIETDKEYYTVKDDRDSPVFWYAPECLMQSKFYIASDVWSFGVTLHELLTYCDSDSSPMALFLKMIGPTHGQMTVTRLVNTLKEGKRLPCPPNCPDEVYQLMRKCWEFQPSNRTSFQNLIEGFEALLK
Insulin receptor (Homo sapiens), sequence (P06213 28-758 limits assumed): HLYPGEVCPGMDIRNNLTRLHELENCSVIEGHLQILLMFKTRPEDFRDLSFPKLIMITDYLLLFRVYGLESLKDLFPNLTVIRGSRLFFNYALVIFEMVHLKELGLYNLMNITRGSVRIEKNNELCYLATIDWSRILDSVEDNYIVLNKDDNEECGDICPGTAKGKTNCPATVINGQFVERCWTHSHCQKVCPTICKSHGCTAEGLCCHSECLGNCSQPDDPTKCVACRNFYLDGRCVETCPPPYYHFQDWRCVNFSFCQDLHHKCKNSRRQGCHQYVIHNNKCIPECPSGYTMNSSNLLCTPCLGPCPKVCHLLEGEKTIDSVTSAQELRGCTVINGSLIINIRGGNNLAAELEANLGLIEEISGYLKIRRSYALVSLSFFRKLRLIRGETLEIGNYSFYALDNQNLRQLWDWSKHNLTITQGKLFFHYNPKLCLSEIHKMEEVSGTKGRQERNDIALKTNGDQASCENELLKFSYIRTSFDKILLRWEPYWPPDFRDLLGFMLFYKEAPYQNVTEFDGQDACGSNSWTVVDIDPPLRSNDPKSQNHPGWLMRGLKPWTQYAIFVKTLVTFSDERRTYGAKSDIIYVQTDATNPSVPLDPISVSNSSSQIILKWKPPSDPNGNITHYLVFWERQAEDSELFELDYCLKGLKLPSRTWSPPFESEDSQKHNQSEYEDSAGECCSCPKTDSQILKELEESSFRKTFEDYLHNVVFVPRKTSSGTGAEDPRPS
Insulin receptor (Homo sapiens), sequence (P06213 763-1382 limits assumed): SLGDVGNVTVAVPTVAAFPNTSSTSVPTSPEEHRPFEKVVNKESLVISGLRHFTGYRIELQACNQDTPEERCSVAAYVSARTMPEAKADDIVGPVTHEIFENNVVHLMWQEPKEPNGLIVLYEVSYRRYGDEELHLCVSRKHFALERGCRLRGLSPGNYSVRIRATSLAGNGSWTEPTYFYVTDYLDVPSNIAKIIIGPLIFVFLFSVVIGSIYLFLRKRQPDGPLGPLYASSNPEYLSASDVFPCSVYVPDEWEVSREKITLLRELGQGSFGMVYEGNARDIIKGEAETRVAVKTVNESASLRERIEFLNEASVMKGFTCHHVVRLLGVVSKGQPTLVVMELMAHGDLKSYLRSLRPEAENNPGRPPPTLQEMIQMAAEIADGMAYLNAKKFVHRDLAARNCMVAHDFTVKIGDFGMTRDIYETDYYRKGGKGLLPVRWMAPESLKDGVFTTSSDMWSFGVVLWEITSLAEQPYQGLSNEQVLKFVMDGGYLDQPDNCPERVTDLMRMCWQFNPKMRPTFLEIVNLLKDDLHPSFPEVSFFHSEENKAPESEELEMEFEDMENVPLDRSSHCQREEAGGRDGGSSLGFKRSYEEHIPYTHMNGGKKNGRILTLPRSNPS

In the case of `CCN1CCN(Cc2ccc(NC(=O)c3ccc(C)c(/C=C/c4cnc5[nH]ccc5c4OC)c3)cc2C(F)(F)F)CC1`, the figures for the inhibition in experiment [1] and in experiment [2] were -9.4% and 59.5%, respectively. The residual activity in experiment [3] is 78%; in experiment [4], 74%.
With `CCN1CCN(Cc2ccc(NC(=O)c3ccc(C)c(Oc4ccnc5[nH]ccc45)c3)cc2C(F)(F)F)CC1`, in experiment [5], the inhibition entry was “inactive”. Besides, the inhibition in experiment [6] is 2.8%; in [7] it was 10.8%; in [8], 11.6%; in experiment [9], -6.4%.
